Measurements published in publication PMC3692405, “Disease-associated mutations in CNGB3 promote cytotoxicity in photoreceptor-derived cells” (Molecular Vision, 2013).
Positions count from the first letter of the chain named. Where two headings read alike, the source gives them in different places.

Key:
Format in all cases: biochemical
Conditions in all cases: in the presence of 0.1 µM CPT-cGMP
[1] = molecular target: T1, CNGA3 plus CNGB3 T383fsX channels (Homo sapiens, UniProt Q16281); assay: Inside-out patch-clamp recording of channels expressed in Xenopus oocytes (CNGB3 T383fsX)
T1 construct: expressed in transfected cells; host or cells: Xenopus laevis oocytes injected with cRNA transcribed from pGEMHE constructs
T1 sequence (Q16281 1-694): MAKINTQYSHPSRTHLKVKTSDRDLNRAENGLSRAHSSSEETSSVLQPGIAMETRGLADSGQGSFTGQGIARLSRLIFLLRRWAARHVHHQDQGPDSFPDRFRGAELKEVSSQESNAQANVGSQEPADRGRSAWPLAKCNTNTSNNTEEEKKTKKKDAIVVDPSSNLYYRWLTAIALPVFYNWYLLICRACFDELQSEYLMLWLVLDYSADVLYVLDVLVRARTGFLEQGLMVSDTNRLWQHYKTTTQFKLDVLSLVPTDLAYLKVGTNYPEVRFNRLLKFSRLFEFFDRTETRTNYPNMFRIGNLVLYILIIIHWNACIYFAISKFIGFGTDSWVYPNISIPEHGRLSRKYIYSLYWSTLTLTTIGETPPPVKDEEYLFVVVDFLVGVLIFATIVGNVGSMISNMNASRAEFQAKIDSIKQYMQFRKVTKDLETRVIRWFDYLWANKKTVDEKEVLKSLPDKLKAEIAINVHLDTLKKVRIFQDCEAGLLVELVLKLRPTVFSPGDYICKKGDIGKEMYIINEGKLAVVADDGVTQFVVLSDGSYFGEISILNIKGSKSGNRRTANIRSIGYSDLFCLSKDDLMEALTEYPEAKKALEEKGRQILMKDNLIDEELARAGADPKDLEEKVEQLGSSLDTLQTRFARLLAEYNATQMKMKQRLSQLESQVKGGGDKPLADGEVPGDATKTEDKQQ
Method: (§1) For heterologous expression in Xenopus laevis oocytes, identical amounts of cDNA were linearized using SphI or NheI, and capped cRNA was transcribed in vitro using the T-7 RNA polymerase mMESSAGE mMACHINE® kit (Ambion, Austin, TX). cRNA concentrations and relative amounts were determined by denaturing gel electrophoresis and KODAK 1D image analysis software (Rochester, NY), as well as by spectrophotometry. […] Oocytes were incubated in ND96 (96 mM NaCl, 2 mM KCl, 1.8 mM CaCl2, 1 mM MgCl2, and 5 mM HEPES, pH 7.6, supplemented with 10 μg/ml gentamycin).
(§2) Two to seven days after microinjection of cRNA, patch-clamp experiments were performed using the inside-out configuration with an Axopatch 200B amplifier (Axon Instruments, Foster City, CA). Recordings were made at 20–23 °C. Data were acquired using Pulse software (HEKA Elektronik, Lambrecht, Germany). Current traces were elicited by voltage steps from a holding potential of 0 mV to +80 mV, then to −80 mV and back to 0 mV. Initial pipette resistances were 0.4–0.8 megaohms. Intracellular and extracellular solutions contained 130 mM NaCl, 0.2 mM EDTA, and 3 mM HEPES (pH 7.2). Intracellular solutions were exchanged using an RSC-160 rapid solution changer (Molecular Kinetics, Indianapolis, IN). Currents in the absence of cyclic nucleotides were subtracted. For channel activation by CPT-cGMP or CPT-cAMP, dose–response data were fitted with the Hill equation, I/Imax=([cNMP]^h/(K1/2^h + [cNMP]^h)), where I is the current amplitude at +80 mV, Imax is the maximum current elicited by saturating concentration of ligand, [cNMP] is the ligand concentration, K1/2 is the apparent ligand affinity, and h is the Hill slope. We measured sensitivity to block by L-cis-diltiazem (RBI, Natick, MA) applied to the intracellular face of the patch in the presence of 0.1 μM CPT-cGMP. Data were fit with a modified Hill equation in the form I blocker/I=(K1/2^h/(K1/2^h + [blocker]^h)). Data were analyzed using Igor (Wavemetrics, Lake Oswego, OR), SigmaPlot, and SigmaStat (Systat Software Inc., San Jose, CA). All values are reported as the mean±standard error of the mean of n experiments unless otherwise indicated. Statistical significance was determined using a Student t test or Mann–Whitney rank sum test, and a p value of <0.05 was considered significant.

[2] = molecular target: T2, WT human CNGA3 plus WT CNGB3 heteromeric channels (Homo sapiens, UniProt Q16281+Q9NQW8); assay: Inside-out patch-clamp recording of channels expressed in Xenopus oocytes (WT heteromeric)
T2 construct: expressed in transfected cells; host or cells: Xenopus laevis oocytes injected with cRNA transcribed from pGEMHE constructs
T2 sequence (Q16281 1-694): T1 sequence (Q16281 1-694)
T2 sequence (Q9NQW8 1-809): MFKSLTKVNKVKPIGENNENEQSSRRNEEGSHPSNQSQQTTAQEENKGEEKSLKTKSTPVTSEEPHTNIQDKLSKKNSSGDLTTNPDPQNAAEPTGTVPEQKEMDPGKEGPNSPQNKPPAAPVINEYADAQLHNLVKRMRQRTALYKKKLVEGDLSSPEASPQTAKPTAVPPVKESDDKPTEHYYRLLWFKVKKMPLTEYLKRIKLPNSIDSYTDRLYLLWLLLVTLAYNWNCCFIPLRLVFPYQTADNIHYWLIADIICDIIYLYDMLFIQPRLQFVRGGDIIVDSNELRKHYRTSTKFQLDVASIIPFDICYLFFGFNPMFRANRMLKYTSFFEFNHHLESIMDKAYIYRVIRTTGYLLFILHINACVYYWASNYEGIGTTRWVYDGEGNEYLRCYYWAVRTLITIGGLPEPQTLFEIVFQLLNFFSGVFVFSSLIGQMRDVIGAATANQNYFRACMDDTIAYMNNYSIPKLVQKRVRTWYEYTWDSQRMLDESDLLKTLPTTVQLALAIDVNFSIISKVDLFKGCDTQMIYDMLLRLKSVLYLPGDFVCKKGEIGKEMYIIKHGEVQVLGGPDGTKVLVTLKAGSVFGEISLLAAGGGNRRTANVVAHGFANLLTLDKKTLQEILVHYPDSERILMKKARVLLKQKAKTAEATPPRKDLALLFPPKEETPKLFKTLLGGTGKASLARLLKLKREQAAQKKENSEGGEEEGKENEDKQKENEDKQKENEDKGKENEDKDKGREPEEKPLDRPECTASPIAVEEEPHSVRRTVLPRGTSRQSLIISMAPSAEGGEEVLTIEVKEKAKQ
Method: as §1, §2

[3] = molecular target: T3, CNGA3 plus CNGB3-F525N channels (Homo sapiens, UniProt Q16281+Q9NQW8, F525N); assay: Inside-out patch-clamp recording of channels expressed in Xenopus oocytes (CNGB3 F525N)
T3 construct: expressed in transfected cells; host or cells: Xenopus laevis oocytes injected with cRNA transcribed from pGEMHE constructs
T3 sequence (Q16281 1-694): T1 sequence (Q16281 1-694)
T3 sequence (Q9NQW8 1-809 F525N): T2 sequence (Q9NQW8 1-809) with F525N
Method: as §1, §2

[4] = Figure 6B, read-out: K1/2,L-cis-dilt., dose-response fit of Figure 6B
[5] = intracellular face, mean±SEM, n=5, read-out: apparent affinity for L-cis-diltiazem K1/2, L-cis-dilt. (channel block)

Hill slope h, block by L-cis-diltiazem, Figure 6B ([1]; Figure 6B): 0.3 | IC50 [1, 4]: 135 µM | IC50 ([1]; intracellular face, mean±SEM, n=4, read-out: apparent affinity for L-cis-diltiazem K1/2, L-cis-dilt. (channel block)): 77.9 ± 23.1 µM | Hill slope h, block by L-cis-diltiazem, Figure 6B ([2]; Figure 6B): 0.5 | IC50 [2, 4]: 4.1 µM | IC50 [2, 5]: 4.06 ± 1 µM | Hill slope h, block by L-cis-diltiazem, Figure 6B ([3]; Figure 6B): 0.7 | IC50 [3, 4]: 4.2 µM | IC50 [3, 5]: 3.03 ± 0.75 µM
SMILES: COc1ccc([C@@H]2Sc3ccccc3N(CCN(C)C)C(=O)[C@@H]2OC(C)=O)cc1 [L-cis-diltiazem]
